This assay concerns the target KRAS (aa 1-169) G12C, C51S, C80L, C118S (Homo sapiens (Human), UniProt P01116, C118S/C51S/C80L/G12C). As to the kind of experiment: Biochemical functional assay: SOS1-mediated nucleotide exchange of GDP-loaded KRAS G12C, binding to GST-cRaf RBD, FRET readout. As to conditions: 3 hrs pre-incubation with compound at 24° C., SOS1, GTPyS; for pIC50: inhibition of nucleotide exchange. The procedure:
Biochemical Functional Assay
The KRAS (aa 1-169) G12C, C51S, C80L, C118S with a His-tag was expressed, purified and loaded with GDP in house. All protein and substrate solutions were prepared in assay buffer containing 25 mM HEPES pH7.5, 10 mM MgCl2, and 0.01% Triton X-100. Purified GDP-loaded KRAS (aa 1-169) G12C, C51S, C80L, C118S protein was pre-incubated with a serially diluted compound at 24° C. for 3 hrs. Purified SOS1 (aa 564-1049) protein, GTPyS (Sigma) and GST-cRaf RBD (aa 1-149) were then added to each well and incubated at 24° C. for additional 3 hrs. […] Following the incubation, Mab Anti-6HIS-T cryptate (Cisbio) and Mab Anti GST-XL665 (Cisbio) were added and further incubated at 24° C. for 3 hrs. The binding interaction between active GTPyS KRAS G12C and GST-cRaf RBD brings the Tb and XL665 into close proximity enabling an increased FRET signal (Ex337 nm, Em665 nm/620 nm). The inhibition percentage of nucleotide exchange reaction in presence of increasing concentrations of compounds was calculated based on the ratio of fluorescence at 665 nm to that at 620 nm detected on a BMG PHERAstar FSX instrument. The IC50 value of each compound was calculated from fitting the data to the four-parameter logistic model by Dotmatics.

pIC50: −log10 of the molar value.

Sequence of KRAS (aa 1-169) G12C, C51S, C80L, C118S (P01116 other isoform, or with tags, fused parts or gaps G12C/C51S/C80L/C118S): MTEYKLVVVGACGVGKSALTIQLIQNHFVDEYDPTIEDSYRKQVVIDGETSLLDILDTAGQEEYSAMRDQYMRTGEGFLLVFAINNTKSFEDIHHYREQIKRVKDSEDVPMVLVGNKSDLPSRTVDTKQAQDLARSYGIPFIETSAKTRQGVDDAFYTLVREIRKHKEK

For `C=CC(=O)N1CCN(c2nc(OCCN(C)C)nc3cc(-c4c(Cl)c(C)cc5[nH]ncc45)c4c(c23)OCCC4)C[C@@H]1CC#N` [Compound B5, 2-((2S)-1-acryloyl-4-(5-(5-chloro-6-methyl-1H-indazol-4-yl)-8-(2-(dimethylamino)ethoxy)-3,4-dihydro-2H-pyrano[2,3-f]quinazolin-10-yl)piperazin-2-yl)acetonitrile], the pIC50 (in general, the IC50 on a negative log10 scale, so that one unit is a factor of ten) was 8.10.

On to `C=CC(=O)N1CCN(c2nc(OC[C@@H]3CCCN3C)nc3cc(-c4c(Cl)c(C)cc5[nH]ncc45)c4c(c23)OCCC4)CC1` [Compound B6, 1-(4-(5-(5-chloro-6-methyl-1H-indazol-4-yl)-8-(((S)-1-methylpyrrolidin-2-yl)methoxy)-3,4-dihydro-2H-pyrano[2,3-f]quinazolin-10-yl)piperazin-1-yl)prop-2-en-1-one], for which the pIC50 is 7.47.

Regarding `C=CC(=O)N1CCN(c2nc(N3CC(N(C)C)C3)nc3cc(-c4c(O)cccc4F)c4c(c23)OCCC4)CC1` [Compound B7, 1-(4-(8-(3-(dimethylamino)azetidin-1-yl)-5-(2-fluoro-6-hydroxyphenyl)-3,4-dihydro-2H-pyrano[2,3-f]quinazolin-10-yl)piperazin-1-yl)prop-2-en-1-one], the pIC50 is 5.96.

Consider `C=C(F)C(=O)N1CCN(c2nc(N3CC(N(C)C)C3)nc3cc(-c4c(O)cccc4F)c4c(c23)OCCC4)C[C@@H]1CC#N` [Compound B8, 2-((2S)-4-(8-(3-(dimethylamino)azetidin-1-yl)-5-(2-fluoro-6-hydroxyphenyl)-3,4-dihydro-2H-pyrano[2,3-f]quinazolin-10-yl)-1-(2-fluoroacryloyl)piperazin-2-yl)acetonitrile], for which the pIC50 is 6.59.

For `C=C(F)C(=O)N1CCN(c2nc(N3CC(N(C)C)C3)nc3cc(-c4cccc(F)c4F)c4c(c23)OCCC4)C[C@@H]1CC#N` [Compound B9, (S)-2-(4-(5-(2,3-difluorophenyl)-8-(3-(dimethylamino)azetidin-1-yl)-3,4-dihydro-2H-pyrano[2,3-f]quinazolin-10-yl)-1-(2-fluoroacryloyl)piperazin-2-yl)acetonitrile], the pIC50 was 6.34.

As to `C=CC(=O)N1CCN(c2nc(N3CC(N(C)C)C3)nc3cc(-c4cccc5ccccc45)c4c(c23)OCCC4)CC1` [Compound B10, 1-(4-(8-(3-(dimethylamino)azetidin-1-yl)-5-(naphthalen-1-yl)-3,4-dihydro-2H-pyrano[2,3-f]quinazolin-10-yl)piperazin-1-yl)prop-2-en-1-one], the pIC50 was 6.63.

Take `C=C(F)C(=O)N1CCN(c2nc(OC[C@@H]3CCCN3C)nc3cc(-c4c(Cl)c(C)cc5[nH]ncc45)c4c(c23)OCCC4)C[C@@H]1CC#N` [Compound B11, 2-((2S)-4-(5-(5-chloro-6-methyl-1H-indazol-4-yl)-8-(((S)-1-methylpyrrolidin-2-yl)methoxy)-3,4-dihydro-2H-pyrano[2,3-f]quinazolin-10-yl)-1-(2-fluoroacryloyl)piperazin-2-yl)acetonitrile]: the pIC50 was 8.11.

In the case of `C=CC(=O)N1CCN(c2nc(OC[C@@H]3C[C@@H](F)CN3C)nc3cc(-c4cccc(F)c4F)c4c(c23)OCCC4)CC1` [Compound B14, 1-(4-(5-(2,3-difluorophenyl)-8-(((2S,4R)-4-fluoro-1-methylpyrrolidin-2-yl)methoxy)-3,4-dihydro-2H-pyrano[2,3-f]quinazolin-10-yl)piperazin-1-yl)prop-2-en-1-one], the IC50 (in general, the concentration that inhibits the measured activity by half) (bound in uM) is above 10 µM.

For the compound `C=CC(=O)N1CCN(c2nc(OC[C@@H]3C[C@@H](F)CN3C)nc3cc(-c4c(Cl)c(C)cc5[nH]ncc45)c4c(c23)OCCC4)CC1` [Compound B15, 1-(4-(5-(5-chloro-6-methyl-1H-indazol-4-yl)-8-(((2S,4R)-4-fluoro-1-methylpyrrolidin-2-yl)methoxy)-3,4-dihydro-2H-pyrano[2,3-f]quinazolin-10-yl)piperazin-1-yl)prop-2-en-1-one], the pIC50 was 6.97.
